± gives the expanded uncertainty stated by the source.
Experiments:
[1] = wn = mass fraction of the nth substance listed; details: 100 kPa, Liquid; for electrical conductivity: Alternating current cell with electrodes; for viscosity: Capillary tube (Ostwald / Ubbelohde) method; for mass density: Vibrating tube method
[2] = refractive index (Na D-line) (dimensionless); wn = mass fraction of the nth substance listed; details: 100 kPa, Liquid, Standard Abbe refractometry

O=S(=O)([O-])[O-].[Cu+2] [copper sulfate] + O
Details	electrical conductivity, [1] [S/m]	mass density, [1] [kg/m3]	refractive index, [2]	viscosity, [1] [mPa·s]
288.15 K, w1 = 0.0101	0.492 ± 0.073	1009.6 ± 0.33	1.3353 ± 0.0004	1.188 ± 0.11
288.15 K, w1 = 0.0202	0.851 ± 0.073	1019.98 ± 0.33	1.3372 ± 0.0004	1.263 ± 0.11
288.15 K, w1 = 0.0305	1.17 ± 0.073	1030.49 ± 0.33	1.3391 ± 0.0004	1.344 ± 0.11
288.15 K, w1 = 0.0409	1.47 ± 0.074	1041.68 ± 0.33	1.3411 ± 0.0004	1.371 ± 0.11
288.15 K, w1 = 0.0514	1.76 ± 0.15	1052.54 ± 0.33	1.3429 ± 0.0004	1.404 ± 0.11
288.15 K, w1 = 0.0621	2.03 ± 0.15	1063.7 ± 0.34	1.3449 ± 0.0004	1.472 ± 0.11
288.15 K, w1 = 0.0729	2.29 ± 0.15	1074.95 ± 0.34	1.3469 ± 0.0004	1.591 ± 0.11
288.15 K, w1 = 0.0838	2.54 ± 0.15	1086.38 ± 0.34	1.3488 ± 0.0004	1.649 ± 0.11
288.15 K, w1 = 0.0948	2.77 ± 0.15	1098.22 ± 0.34	1.3508 ± 0.0004	1.744 ± 0.11
293.15 K, w1 = 0.0101	0.548 ± 0.073	1008.63 ± 0.33	1.3348 ± 0.0004	1.083 ± 0.11
293.15 K, w1 = 0.0202	0.943 ± 0.073	1019.09 ± 0.33	1.3367 ± 0.0004	1.132 ± 0.11
293.15 K, w1 = 0.0305	1.31 ± 0.073	1029.38 ± 0.33	1.3384 ± 0.0004	1.191 ± 0.11
293.15 K, w1 = 0.0409	1.63 ± 0.074	1040.53 ± 0.34	1.3405 ± 0.0004	1.199 ± 0.11
293.15 K, w1 = 0.0514	1.96 ± 0.15	1051.49 ± 0.33	1.3424 ± 0.0004	1.273 ± 0.11
293.15 K, w1 = 0.0621	2.26 ± 0.15	1062.26 ± 0.33	1.3444 ± 0.0004	1.31 ± 0.11
293.15 K, w1 = 0.0729	2.55 ± 0.15	1073.67 ± 0.34	1.3463 ± 0.0004	1.393 ± 0.11
293.15 K, w1 = 0.0838	2.82 ± 0.15	1084.84 ± 0.34	1.3483 ± 0.0004	1.452 ± 0.11
293.15 K, w1 = 0.0948	3.09 ± 0.15	1096.44 ± 0.34	1.3504 ± 0.0004	1.528 ± 0.11
298.15 K, w1 = 0.0101	0.61 ± 0.074	1007.43 ± 0.33	1.3343 ± 0.0004	0.937 ± 0.048
298.15 K, w1 = 0.0202	1.05 ± 0.074	1017.84 ± 0.33	1.3362 ± 0.0004	1.001 ± 0.048
298.15 K, w1 = 0.0305	1.45 ± 0.074	1028.06 ± 0.33	1.3379 ± 0.0004	1.018 ± 0.11
298.15 K, w1 = 0.0409	1.83 ± 0.15	1039 ± 0.33	1.34 ± 0.0004	1.068 ± 0.11
298.15 K, w1 = 0.0514	2.18 ± 0.15	1049.67 ± 0.33	1.3418 ± 0.0004	1.123 ± 0.11
298.15 K, w1 = 0.0621	2.52 ± 0.15	1060.66 ± 0.34	1.3437 ± 0.0004	1.142 ± 0.11
298.15 K, w1 = 0.0729	2.84 ± 0.15	1071.85 ± 0.34	1.3456 ± 0.0004	1.227 ± 0.11
298.15 K, w1 = 0.0838	3.16 ± 0.15	1083.16 ± 0.34	1.3476 ± 0.0004	1.288 ± 0.11
298.15 K, w1 = 0.0948	3.44 ± 0.15	1094.5 ± 0.34	1.3495 ± 0.0004	1.36 ± 0.11
303.15 K, w1 = 0.0101	0.664 ± 0.074	1005.98 ± 0.33	1.3338 ± 0.0004	0.835 ± 0.048
303.15 K, w1 = 0.0202	1.14 ± 0.074	1016.35 ± 0.33	1.3356 ± 0.0004	0.892 ± 0.048
303.15 K, w1 = 0.0305	1.59 ± 0.074	1026.77 ± 0.33	1.3373 ± 0.0004	0.918 ± 0.048
303.15 K, w1 = 0.0409	2 ± 0.15	1037.41 ± 0.33	1.3392 ± 0.0004	0.952 ± 0.048
303.15 K, w1 = 0.0514	2.38 ± 0.15	1048.04 ± 0.33	1.3411 ± 0.0004	1.014 ± 0.11
303.15 K, w1 = 0.0621	2.75 ± 0.15	1058.96 ± 0.34	1.343 ± 0.0004	1.029 ± 0.11
303.15 K, w1 = 0.0729	3.1 ± 0.15	1070.1 ± 0.34	1.3449 ± 0.0004	1.098 ± 0.11
303.15 K, w1 = 0.0838	3.44 ± 0.15	1081.38 ± 0.34	1.3468 ± 0.0004	1.122 ± 0.11
303.15 K, w1 = 0.0948	3.76 ± 0.15	1092.64 ± 0.34	1.3488 ± 0.0004	1.203 ± 0.11
308.15 K, w1 = 0.0101	0.719 ± 0.074	1004.32 ± 0.33	1.3331 ± 0.0004	0.758 ± 0.048
308.15 K, w1 = 0.0202	1.24 ± 0.074	1014.65 ± 0.33	1.3349 ± 0.0004	0.8 ± 0.048
308.15 K, w1 = 0.0305	1.72 ± 0.15	1024.97 ± 0.33	1.3367 ± 0.0004	0.835 ± 0.048
308.15 K, w1 = 0.0409	2.16 ± 0.15	1035.64 ± 0.33	1.3387 ± 0.0004	0.857 ± 0.048
308.15 K, w1 = 0.0514	2.57 ± 0.15	1046.35 ± 0.33	1.3405 ± 0.0004	0.883 ± 0.048
308.15 K, w1 = 0.0621	2.97 ± 0.15	1057.16 ± 0.33	1.3426 ± 0.0004	0.948 ± 0.048
308.15 K, w1 = 0.0729	3.36 ± 0.15	1068.13 ± 0.34	1.3445 ± 0.0004	0.99 ± 0.048
308.15 K, w1 = 0.0838	3.74 ± 0.15	1078.76 ± 0.34	1.3463 ± 0.0004	1.022 ± 0.11
308.15 K, w1 = 0.0948	4.09 ± 0.15	1091.27 ± 0.35	1.3481 ± 0.0004	1.089 ± 0.11

Source: the NIST ThermoML archive (doi:10.1007/s10765-016-2089-2)
